The source made the active and inactive calls. No cut-off for these calls is given here.
Tests used:
RAW264.7 [1] = test: Cytotoxicity against mouse RAW264.7 cells at 100 uM measured after 2 hrs by LDH assay; type: toxicity, cell-based; conditions: raw264.7, 2 h
Peritoneal macrophage [2] = test: Suppression of HMGB1-induced IL-1beta mRNA expression in male ddY mouse Peritoneal macrophage cells at 10 uM incubated for 2 hrs by qRT-PCR analysis; type: functional, cell-based
Mus musculus [3] = test: Effect on brain water content in cerebellum in male ddY mouse model of collagenase induced intracerebral hemorrhage at 100 mg/kg, po pretreated with collagenase for 20 mins followed by compound administration via oral gavage and measured at 24 hrs; type: functional, organism-based
[4] = Solubility of compound at >10 uM; type: physicochemical
Mus musculus [5] = test: Neuroprotective activity in male ddY mouse model of collagenase induced intracerebral hemorrhage assessed as rescue of ICH-induced neuronal loss by measuring increase in NeuN-positive neurons in periphery of […] at 100 mg/kg, po pretreated with collagenase for 20 mins followed by compound administration via oral gavage and measured at 24 hrs by immunohistochemical staining based analysis; type: functional, organism-based
Mus musculus [6] = test: Effect on brain water content in contralateral hemisphere in male ddY mouse model of collagenase induced intracerebral hemorrhage at 100 mg/kg, po pretreated with collagenase for 20 mins followed by compound administration via oral gavage and measured at 24 hrs; type: functional, organism-based
Mus musculus [7] = test: In vivo inhibition of HMGB1 in male ddY mouse model of collagenase induced intracerebral hemorrhage assessed as reduction in brain water content in ipsilateral hemisphere at 100 mg/kg, po pretreated with collagenase for 20 mins followed by compound administration via oral gavage and measured at 24 hrs; type: functional, organism-based
Peritoneal macrophage [8] = test: Suppression of HMGB1-induced IL-1beta mRNA expression in male ddY mouse Peritoneal macrophage cells at 10 uM incubated for 2 hrs in presence of RU486 by qRT-PCR analysis; type: functional, cell-based
Mus musculus [9] = test: Suppression of IL-1beta mRNA expression in po dosed male ddY mouse model of collagenase induced intracerebral hemorrhage pretreated with collagenase for 20 mins followed by compound administration via oral gavage and measured at 24 hrs by qRT-PCR analysis; type: functional, organism-based; conditions: dose 50-100 mg/kg
Mus musculus [10] = test: In vivo inhibition of HMGB1 in male ddY mouse model of collagenase induced intracerebral hemorrhage assessed as reduction in AQP4 protein level at 100 mg/kg, po pretreated with collagenase for 20 mins followed by compound administration via oral gavage and measured at 24 hrs by Western blot analysis; type: functional, organism-based
[11] = Drug uptake in brain of male ddY mouse model of collagenase induced intracerebral hemorrhage assessed as appearance of unchanged form of drug by measuring retention time at 100 mg/kg, po pretreated with collagenase for 20 mins followed by compound administration via oral gavage and measured at 24 hrs by LC-MS analysis; type: ADME, organism-based; conditions: in vivo
Mus musculus [12] = test: Effect on hematoma size in male ddY mouse model of collagenase induced intracerebral hemorrhage at 100 mg/kg, po pretreated with collagenase for 20 mins followed by compound administration via oral gavage and measured at 24 hrs; type: functional, organism-based
RAW264.7 [13] = test: Cytotoxicity against mouse RAW264.7 cells at 30 to 100 uM measured after 2 hrs by LDH assay; type: toxicity, cell-based; conditions: raw264.7, 2 h, dose 30-100 µM
Peritoneal macrophage [14] = test: Suppression of HMGB1-induced IL-1beta mRNA expression in male ddY mouse Peritoneal macrophage cells at 10 nM incubated for 2 hrs in presence of RU486 by qRT-PCR analysis; type: functional, cell-based

For `CC1(C)C(=O)CC[C@]2(C)[C@H]3C(=O)C=C4[C@@H]5C[C@@](C)(C(=O)O)CC[C@]5(C)C[C@H](O)[C@@]4(C)[C@]3(C)CC[C@@H]12`, the Activity (RAW264.7 [1]) was “Toxic” and the Activity (Peritoneal macrophage [2]) was “inactive”.

In the case of `CC1(C)[C@@H](O)CC[C@]2(C)[C@H]3C(=O)C=C4[C@@H]5C[C@@](C)(C(=O)O)CC[C@]5(C)C[C@H](O)[C@@]4(C)[C@]3(C)CC[C@@H]12`, the Activity (Peritoneal macrophage [2]) is reported as “inactive”.

With `CC1(C)C(=O)CC[C@]2(C)[C@H]3C(=O)C=C4[C@@H]5C[C@@](C)(C(=O)O)CC[C@]5(C)CC[C@@]4(C)[C@]3(C)CC[C@@H]12` the Activity (RAW264.7 [1]) was “Toxic”.

In the case of `COC(=O)[C@@]1(C)CC[C@]2(C)CC[C@]3(C)C(=CC(=O)[C@@H]4[C@@]5(C)CCC(=O)C(C)(C)[C@@H]5CC[C@]43C)[C@@H]2C1`, the Activity (Mus musculus [3]) is reported as “inactive”, the solubility [4] is reported as “Insoluble” and the Activity (Mus musculus [5]) is reported as “Active”. The Activity (Mus musculus [6]) was “inactive”, the Activity (Peritoneal macrophage [2]) was “Active” and the inhibition (Mus musculus [7]) was “Active”. The Activity (Peritoneal macrophage [8]) was “Active”, the Activity (Mus musculus [9]) was “Dose-Dependent Effect” and the inhibition (Mus musculus [10]) was “Active”. For the same compound, the Retention_time [11] was 11.3 min and the Activity (Mus musculus [12]) was “inactive”.

In the case of `CC1(C)[C@@H](O[C@H]2O[C@H](C(=O)O)[C@@H](O)[C@H](O)[C@H]2O[C@@H]2O[C@H](C(=O)O)[C@@H](O)[C@H](O)[C@H]2O)CC[C@]2(C)[C@H]3C(=O)C=C4[C@@H]5C[C@@](C)(C(=O)O)CC[C@]5(C)CC[C@@]4(C)[C@]3(C)CC[C@@H]12`, the Activity (Peritoneal macrophage [2]) is reported as “Active”.

For `CC1(C)[C@@H](O)CC[C@]2(C)[C@H]3C(=O)C=C4[C@@H]5C[C@@](C)(C(=O)O)CC[C@]5(C)CC[C@@]4(C)[C@]3(C)CC[C@@H]12` [ENOXOLONE], the Activity (RAW264.7 [13]) was “Toxic”.

With `C[C@]12CCC(=O)C=C1CC[C@@H]1[C@@H]2[C@@H](O)C[C@@]2(C)[C@H]1CC[C@]2(O)C(=O)CO` the Activity (Peritoneal macrophage [14]) was “inactive”.

Reference: ChEMBL document CHEMBL5579891, “A Glycyrrhizin Derivative with a More Potent Inhibitory Activity against High-Mobility Group Box 1 Efficiently Discovered by Chemical Synthesis Inspired by the Bioconversion Products of an Endophytic Fungus Isolated from Licorice” (J Med Chem, 2024)
